Measured values from PubChem BioAssay AID449762 (Southern Research Specialized Biocontainment Screening …, 2010).
Results filed as inconclusive are left out.

Test system: M. tuberculosis H37Rv growth inhibition, 7H9 media
Test: M. tuberculosis growth inhibition, HTS (AID 449762);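 further: bacterial growth assessed after seven days of incubation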
Details: for IC90: measured here: IC90 growth inhibition

Cc1cc(=O)n2cccc(O)c2n1
IC50: 5.94 µM | IC90: 15.6 µM

C[C@@H]1CN([C@H](C)CO)C(=O)c2cc(NC(=O)Nc3ccc(C(F)(F)F)cc3)ccc2O[C@H]1CN(C)S(=O)(=O)c1cccs1
IC50: 22.6 µM | IC90: 25.9 µM

CCOC(=O)CSc1nn(-c2ccccc2)c(=S)s1
IC50: 4.75 µM | IC90: 9.22 µM

O=C(Nc1cccc(-c2ccc(N3CCCCC3)nn2)c1)c1ccc(Br)o1
IC50: 16.5 µM | IC90: 42.4 µM

CCOC(=O)CSc1cc(=O)n(C)c2cc(Cl)ccc12
IC50: < 0.2 µM | IC90: 73.9 µM

O=C(Nc1nc2ccc(SC(F)F)cc2s1)c1ccc(NS(=O)(=O)c2ccc(F)c(F)c2)cc1
IC50: 16.5 µM | IC90: 24.7 µM

C[Se]C[C@@H](N)C(=O)O
IC50: 51 µM | IC90: 69.6 µM

CN(C(=O)COC(=O)/C=C/c1ccc(Cl)c(Cl)c1)c1c(N)n(Cc2ccccc2)c(=O)[nH]c1=O
IC90: > 100 µM

Oc1cc(Nc2ccccc2)cc2cccnc12
IC50: 13.8 µM | IC90: 26.6 µM

COC(=O)CCn1c(C)cc(C(=O)COc2ccccc2C(N)=O)c1C
IC50: 10.2 µM | IC90: 15.8 µM

CC(C)(C)Nc1nc(NC(C)(C)C)nc(-n2ccnc2)n1
IC50: 14.6 µM | IC90: > 100 µM

CC(C)(C)C(=O)/C(=C\c1cccc([N+](=O)[O-])c1)n1cncn1
IC50: 1.51 µM | IC90: 1.72 µM

ClCc1nc2ccccc2c2ccccc12
IC50: 6.3 µM | IC90: 17.2 µM

O=C(CSc1nnnn1-c1ccc2c(c1)OCCO2)OC1CCCCC1
IC50: 11.9 µM | IC90: 21.7 µM

Cc1cc(C)c2c(CN3CCN(Cc4ccccc4)CC3)cc(=O)oc2c1C
IC50: 49.1 µM | IC90: 54.6 µM

CCN(CC)c1ccc2c(Cl)c(Br)c(=O)oc2c1
IC50: 13.7 µM | IC90: 43.4 µM

Cc1cc2c(cc1C)CSC(c1c(O)ccc3ccccc13)SC2
IC50: 45.3 µM | IC90: > 100 µM

CCOc1ccccc1NC(=O)C12CC3CC(C1)CC(c1ccc(C)cc1)(C3)C2
IC50: 30.1 µM | IC90: > 100 µM

C=C1C(=O)[C@@]23[C@H](O)C[C@@H]4C(C)(C)CC[C@H](O)[C@@]4(C)[C@@H]2CC[C@@H]1[C@H]3O
IC50: 3.04 µM | IC90: 4.05 µM

O=C(/C(=C/c1ccc(Cl)cc1)c1nc2ccccc2[nH]1)c1cccs1
IC50: 21.2 µM | IC90: 42.7 µM

COC(=O)c1ccc(COC(=O)CCc2nc(-c3ccccc3)c(-c3ccccc3)o2)cc1
IC50: 21.5 µM | IC90: > 100 µM

O=C1C2(Cl)C3(Cl)C4(Cl)C(Cl)(Cl)C5(Cl)C3(Cl)C1(Cl)C5(Cl)C24Cl (stereo not drawn)
IC50: 46.7 µM | IC90: 53 µM

Nc1nc2ccccc2n1CCOc1ccccc1Cl
IC50: 12.1 µM | IC90: 13.3 µM

Cc1cccc(C(=O)NNC(=S)NC(=O)c2ccccc2)c1
IC50: 0.59 µM | IC90: 2.82 µM

CC(=O)N1C(Nc2ccc(Cl)cc2)CCN1c1ccccc1 (stereo not drawn)
IC90: > 100 µM

CC(C)CNC(=S)NC(=O)c1csc([N+](=O)[O-])c1
IC50: 6.74 µM | IC90: 15.1 µM

Cc1sc2ncnc(N3CCC(C(=O)N(CC(C)C)c4nc5ccccc5s4)CC3)c2c1C
IC50: 84.5 µM | IC90: > 100 µM

O=C1C(=O)N(c2ccccc2)c2ccccc21
IC50: 8.23 µM | IC90: 17.7 µM

O=C(OCc1ccccc1)c1cccc(-c2nnn(Cc3ccccc3)n2)c1
IC50: 67.7 µM | IC90: > 100 µM

Cc1cc2nc(C3CCN(CC4COc5ccccc5O4)CC3)[nH]c2cc1C (stereo not drawn)
IC50: 15.5 µM | IC90: 25.4 µM

Cc1ccnc(NC(=O)COc2ccc3c(c2)CCC3)c1
IC50: 40.2 µM | IC90: > 100 µM

COC(=O)[C@H](CCSC)NC(=O)N1CCN(c2cccc(C(F)(F)F)c2)CC1
IC50: 14.4 µM | IC90: 40.5 µM

O=C1C2C(c3ccccc3)(C(=O)N1c1ccc(Cl)cc1)C2(c1ccccc1)c1ccccc1 (stereo not drawn)
IC50: 11.5 µM | IC90: 12.4 µM

CCOC(=O)N1CCC(n2c(SCC(=O)OCc3ccccc3)nc3ccsc3c2=O)CC1
IC50: 27.1 µM | IC90: > 100 µM

Cc1nc(N2CCC(C)CC2)c2oc3ccccc3c2n1
IC50: 24 µM | IC90: 45.4 µM

O=C(NN=C1c2ccccc2-c2ccccc21)c1cccc(Br)c1
IC50: 0.28 µM | IC90: > 100 µM

CCCOP(=O)(OCCC)c1c([N+](=O)[O-])cc(C(F)(F)F)cc1[N+](=O)[O-]
IC50: 3.88 µM | IC90: 6.52 µM

Cc1ccc(C(=O)O/N=C\c2ccc(N3CCCCC3)c([N+](=O)[O-])c2)cc1
IC50: 22.1 µM | IC90: 49 µM

CCOC(=O)c1csc(-c2snnc2C)n1
IC50: 21.4 µM | IC90: 52 µM

CC(c1nc2ccccc2c(=O)[nH]1)N(C)CCOc1ccc(Cl)cc1 (stereo not drawn)
IC50: 40.4 µM | IC90: 51.7 µM

CCOc1ccc2nc(N/C(N)=N/C(=S)Nc3cccc(C)c3)nc(C)c2c1
IC50: 5.4 µM | IC90: > 100 µM

COc1ccc(NS(=O)(=O)c2ccc3nc(COc4cccc5ccccc45)[nH]c3c2)cc1
IC50: 63.2 µM | IC90: > 100 µM

CSc1nn(-c2ccc(C(=O)OCC(=O)NC(=O)NC(C)C)cc2)c(=S)s1
IC50: 23.1 µM | IC90: 25.9 µM

CCOC(=O)c1c(C)n(-c2ccc(C)cc2)c2ccc(OCC(O)CNCC3CCCO3)cc12 (stereo not drawn)
IC50: 22.7 µM | IC90: 31 µM

Cc1ccc(Nc2nc(CSc3nnc(-c4cccs4)o3)cs2)cc1
IC50: 40.7 µM | IC90: > 100 µM

Cc1ccc(/C=C/C(=O)N2CC(C)CC(C)C2)o1 (stereo not drawn)
IC50: 8.06 µM | IC90: 22.1 µM

CN(C)[C@@H]1C(=O)C(C(N)=O)=C(O)[C@@]2(O)C(=O)C3=C(O)c4c(O)cccc4[C@@](C)(O)C3C[C@@H]12 (stereo partly drawn)
IC50: 5.95 µM | IC90: 15 µM

O=c1c(Cl)nc2cc(Cl)ccc2n1CCNc1ncc(C(F)(F)F)cc1Cl
IC50: 1.3 µM | IC90: 3.89 µM

Nc1ccccc1C#CC(=O)c1ccccc1
IC50: 1.11 µM | IC90: 43.1 µM

O=C(Nc1ccc(OCC(F)(F)C(F)F)c(C(F)(F)F)c1)c1ccc(Cl)cc1
IC50: 35.6 µM | IC90: 47.1 µM

Cc1cc(Cl)ccc1OCCCC(=O)NO
IC50: 17.6 µM | IC90: > 100 µM

C/C(=N\NC(=O)c1cc2c(s1)CCC(C)C2)c1ccncc1 (stereo not drawn)
IC90: > 100 µM

Cc1ccc(CN2CCC(c3cc(-c4ccc(Cl)cc4)n[nH]3)CC2)cc1
IC50: 11.6 µM | IC90: 14.8 µM

CN(CCCCCCCCCCN(C)C(=O)Oc1cccc([N+](C)(C)C)c1)C(=O)Oc1cccc([N+](C)(C)C)c1
IC50: 1.49 µM | IC90: 4.04 µM

NC(=O)CSc1nnc(COc2ccc3ccccc3c2)o1
IC50: 1.75 µM | IC90: > 100 µM

CCOC(=O)c1cc(-c2ccc(N3CCOCC3)cc2)nn1-c1ccccc1
IC50: 13.4 µM | IC90: 45.2 µM

CC(/C=C/c1ccccc1)=N\NC(N)=S
IC50: 3.84 µM | IC90: 9.07 µM

Cc1c(CN2CCC(CO)(Cc3cccc(C(F)(F)F)c3)CC2)c2ccccc2n1C
IC50: 20.6 µM | IC90: 28.9 µM

Cn1ncnc2c(=O)n(C)c(=O)nc1-2
IC50: 1.66 µM | IC90: 2.62 µM

Oc1ccc(CN2CCc3ccccc3C2)c2cccnc12
IC50: 61.5 µM | IC90: > 100 µM

Cc1cc(C)c(C(N)=O)c(SCC(=O)c2ccc(Cl)cc2)n1
IC50: 35.3 µM | IC90: 63.1 µM

COc1ccc(CN2CCN(C(c3ccc(F)cc3)c3ccc(F)cc3)CC2)c(OC)c1OC
IC50: 23.3 µM | IC90: 26.3 µM

O=c1[nH]c(CSc2cccc[n+]2[O-])nc2ccccc12
IC50: 96.4 µM | IC90: > 100 µM

Clc1ccc(-c2[nH]ncc2N=Nc2ccccc2)cc1
IC50: 31.7 µM | IC90: > 100 µM

Cc1ccc(NC(=O)COC(=O)CCc2c[nH]c3ccccc23)cc1[N+](=O)[O-]
IC50: 0.68 µM | IC90: 4.74 µM

CCOC(=O)c1sc2ncnc(NCC(c3cccs3)N(C)C)c2c1C (stereo not drawn)
IC50: 34.9 µM | IC90: 71.6 µM

COc1cc2[nH]c(Cl)c([N+](=O)[O-])c2cc1OC
IC50: 99.6 µM | IC90: > 100 µM

O=c1c(O)c(-c2cccs2)oc2ccccc12
IC50: 12 µM | IC90: > 100 µM

CN(c1ccccc1)S(=O)(=O)c1cccc(C(=O)NCc2ccccc2CN2CCCC2)c1
IC50: 48.8 µM | IC90: 55.4 µM

CC(C)NC(=O)c1sc(=S)n2c1[nH]c(=O)c1ccc(C(=O)NCCc3ccc(Cl)cc3)cc12
IC50: 0.3 µM | IC90: 0.49 µM

O=c1cc2[nH]c3ccccc3c(=O)n2nc1-c1ccccc1
IC50: 6.91 µM | IC90: 18 µM

CCc1cc(C(=O)NNC(=O)CCl)sc1C
IC50: 2.55 µM | IC90: 4.62 µM

CC1(C)Cc2c(C#N)c(N3CCN(C(=O)c4ccccc4)CC3)nc(Cc3ccccc3)c2CO1
IC50: 28.8 µM | IC90: > 100 µM

O=C(CCCCCNc1nc(=S)[nH]c2ccccc12)N1CCN(c2ccccn2)CC1
IC50: 40.9 µM | IC90: > 100 µM

COc1ccc(-c2nnc3sc(C4CCCCC4)nn23)cc1OC
IC50: 36.2 µM | IC90: 55.3 µM

Cc1c(NC(=O)c2ccc([N+](=O)[O-])o2)cccc1-c1nc2ncccc2o1
IC50: 8.36 µM | IC90: > 25 µM

CCOc1ccc(NC(=O)CCc2nnc3ccc(N4CCC(C)CC4)nn23)cc1
IC50: 8.75 µM | IC90: 15.3 µM

CCCCCCCNC1=CC(=O)CC(c2ccccc2)C1 (stereo not drawn)
IC50: 41.6 µM | IC90: 53.9 µM

CC(C)OC(=O)CSc1nc2ccccc2s1
IC50: 12.4 µM | IC90: 33.6 µM

COc1cc(/C=C2\C(=O)N(c3ccc(S(N)(=O)=O)cc3)N=C2C)ccc1OC(=O)c1ccco1
IC50: 16.2 µM | IC90: 22.6 µM

N#Cc1ccc(OCC(O)CN2CCN(c3ncc(C(F)(F)F)cc3Cl)CC2)cc1 (stereo not drawn)
IC50: 15.2 µM | IC90: 24 µM

COc1ccc(C2c3[nH]c4ccccc4c3CCN2C(=O)c2cc3ncccn3n2)c(F)c1 (stereo not drawn)
IC90: > 100 µM

O=C1c2ccccc2C(=O)N1Nc1ccccc1
IC90: > 100 µM

O=C(N/N=C\C=C\c1ccc([N+](=O)[O-])o1)c1cccs1
IC50: 0.59 µM | IC90: 0.92 µM

O=C1c2cccc3c([N+](=O)[O-])ccc(c23)C(=O)N1O
IC50: 8.11 µM | IC90: 13.8 µM

Cc1ccn2c(NC3CCCCC3)c(-c3cccc(-c4cccc(Cl)c4)c3)nc2c1
IC50: 14.2 µM | IC90: 27 µM

Oc1ccc(F)c2cccnc12
IC50: 5.26 µM | IC90: 6.88 µM

Cc1c(CN(C)C)c2c(n1Cc1ccccc1)C(=O)c1ccc(Br)cc1-2
IC50: 17.6 µM | IC90: 22 µM

Cc1ccc2c(c1)c1ncnc(N3CCc4ccccc4C3)c1n2C
IC50: 81.1 µM | IC90: > 100 µM
